In patent publication US10098870B2 (JENKEM TECHNOLOGY CO., LTD. (BEIJING), priority 2013, dated 2018):
“And” between values parts separate entries of the source, which are not always exact repeats. Equal entries are not always repeated. “Also recorded” adds a separate entry of the source. Where two headings read alike, the source gives them in different places.

How the values were obtained:
[1] = tested on: H460 human non-small cell lung cancer cells; settings: mean ± SE
Method: 5.0×10^6 of H460 tumor cells were suspended in 0.1 ml of PBS, inoculated to each nude mouse at the right shoulder, and there were totally 34 mice inoculated. 8 days later the mean tumor volume was desired to reach about 143 mm^3, the mice with a smaller or larger tumor were removed and the remaining 24 mice were divided into groups randomly according to tumor volume and administrated.

[2] = tested on: human hepatoma cell plc/prf/5; test: Anti-tumor effect on subcutaneous transplantation tumor model of plc/prf/5 in NOD/SCID mice (Example 5); format: in vivo, NOD/SCID mouse; settings: for Tumor volume: 10 mg/kg (counted with rapamycin) i.v. Q2W×2W, mean ± SE
Method: The tumor cells were passaged with digestion by trypsin-EDTA twice a week. The cells in the exponential growth phase were collected, counted, and used for inoculation.
1×10^7 of plc/prf/5 tumor cells were suspended in 0.1 ml of mixed solution (PBS:Matrigel=4:1), inoculated to each NOD/SCID mouse at the right shoulder.
Wherein Q2W×2W represents intravenous injection […] for 2 weeks, the same below. (2) Experimental Results

[3] = tested on: human hepatoma cell Hep3B; test: Anti-tumor effect on xenograft tumor model of Hep3B in immune deficiency mice (Example 7); settings: for T/C (%) RTV / T/C (%) TW: vs physiological saline; for RTV / Tumor weight: 44th day, Mean ± SEM; for Tumor volume: mean ± SE
[4] = tested on: A549 human non-small cell lung cancer cells; test: Anti-tumor effect on xenograft tumor model of A549 in nude mice (Example 10); settings: for T/C (%) RTV / T/C (%) TW: vs physiological saline; for RTV / Tumor weight: 52nd day, Mean ± SEM; for Tumor volume: mean ± SE;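 on all read-outs here: nude mice bearing A549 xenografts established by inoculating 1.0×10^7 cells in PBS at the right shoulder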
Method: A549 cells were cultured with a monolayer in vitro in RPMI1640 medium supplied with heat-inactivated fetal bovine serum with a volume ratio of 10%, and an incubator at 37° C. with the air containing CO2 with a proportion of 5%. The tumor cells were passaged with digestion by trypsin-EDTA twice a week. The cells in the exponential growth phase were collected, counted, and used for inoculation.
1.0×10^7 of A549 tumor cells were suspended in 0.1 ml of PBS, inoculated to each nude mouse at the right shoulder, and there were totally 36 mice inoculated.

With “monomethoxy polyethylene glycol (20K)-glutamic acid dipeptide-rapamycin conjugate [LPR-2]” the Tumor volume ([1]; day 19 after inoculation, 30 mg/kg i.v. BIW×3W) was 259 ± 50 mm^3, the Tumor volume ([1]; day 19 after inoculation, 45 mg/kg i.v. QW×3W) was 282 ± 46 mm^3 and the Tumor volume ([1]; day 22 after inoculation, 30 mg/kg i.v. BIW×3W) was 343 ± 67 mm^3. The Tumor volume ([1]; day 22 after inoculation, 45 mg/kg i.v. QW×3W) was 346 ± 53 mm^3, the Tumor volume ([1]; day 26 after inoculation, 30 mg/kg i.v. BIW×3W) was 459 ± 70 mm^3 and the Tumor volume ([1]; day 26 after inoculation, 45 mg/kg i.v. QW×3W) was 468 ± 57 mm^3. The Tumor volume ([1]; day 29 after inoculation, 30 mg/kg i.v. BIW×3W, 30 mg/kg) was 505 mm^3 and 505 ± 87 mm^3, the Tumor volume ([1]; day 29 after inoculation, 45 mg/kg i.v. QW×3W, 45 mg/kg) was 549 mm^3 and 549 ± 76 mm^3 and the “anti-tumor effect (in words)” value ([2]; 10 mg/kg counted with rapamycin, i.v. Q2W×2W) was “stronger antitumor activity than that of polyethylene glycol-rapamycin (LPR-1); also recorded: a certain anti-tumor effect; also recorded: obviously the maximum anti-tumor effect; also recorded: anti-tumor effect significantly higher than that of LPR-1”. The “Days for delaying tumor growth (to 1000 mm^3)” value ([2]; 10 mg/kg i.v. Q2W×2W) was over 7 days, the Tumor volume ([2]; day 24 after inoculation) was 353 ± 54 mm^3 and the Tumor volume ([2]; day 27 after inoculation) was 404 ± 89 mm^3. The Tumor volume ([2]; day 31 after inoculation) was 391 ± 72 mm^3, the Tumor volume ([2]; day 34 after inoculation) was 456 ± 77 mm^3 and the Tumor volume ([2]; day 38 after inoculation) was 536 ± 77 mm^3. For the same substance, the “TGD (to 1,000 mm^3)” value ([3]; 30 mg/kg i.v. BIW×4W) was 17, the “T/C (%) RTV” value ([3]; 30 mg/kg i.v. BIW×4W) was 54% and the “T/C (%) TW” value ([3]; 30 mg/kg i.v. BIW×4W) was 46%. For the same substance, the “TGD (to 1,000 mm^3)” value ([3]; 45 mg/kg i.v. QW×4W) was over 17, the “T/C (%) RTV” value ([3]; 45 mg/kg i.v. QW×4W) was 42% and the “T/C (%) TW” value ([3]; 45 mg/kg i.v. QW×4W) was 40%. The “anti-tumor effect (in words)” value ([3]; 5-FU 15 mg/kg, LPR-2 30 and 45 mg/kg) was “slightly better than that of the 5-FU; also recorded: a common anti-tumor effect”, the RTV ([3]; 30 mg/kg i.v. BIW×4W) was 2.43 ± 0.19 and the Tumor weight ([3]; 30 mg/kg i.v. BIW×4W) was 720 ± 94 mg. The RTV ([3]; 45 mg/kg i.v. QW×4W) was 1.85 ± 0.17, the Tumor weight ([3]; 45 mg/kg i.v. QW×4W) was 625 ± 84 mg and the Tumor volume ([3]; day 16 after inoculation, 30 mg/kg i.v. BIW×4W) was 454 ± 60 mm^3. For the same substance, the Tumor volume ([3]; day 16 after inoculation, 45 mg/kg i.v. QW×4W) was 453 ± 56 mm^3, the Tumor volume ([3]; day 20 after inoculation, 30 mg/kg i.v. BIW×4W) was 524 ± 47 mm^3 and the Tumor volume ([3]; day 20 after inoculation, 45 mg/kg i.v. QW×4W) was 490 ± 73 mm^3. The Tumor volume ([3]; day 23 after inoculation, 30 mg/kg i.v. BIW×4W) was 622 ± 37 mm^3, the Tumor volume ([3]; day 23 after inoculation, 45 mg/kg i.v. QW×4W) was 549 ± 83 mm^3 and the Tumor volume ([3]; day 27 after inoculation, 30 mg/kg i.v. BIW×4W) was 643 ± 45 mm^3. For the same substance, the Tumor volume ([3]; day 27 after inoculation, 45 mg/kg i.v. QW×4W) was 589 ± 91 mm^3, the Tumor volume ([3]; day 30 after inoculation, 30 mg/kg i.v. BIW×4W) was 689 ± 57 mm^3 and the Tumor volume ([3]; day 30 after inoculation, 45 mg/kg i.v. QW×4W) was 584 ± 87 mm^3. It also gave a Tumor volume ([3]; day 34 after inoculation, 30 mg/kg i.v. BIW×4W) of 761 ± 82 mm^3, a Tumor volume ([3]; day 34 after inoculation, 45 mg/kg i.v. QW×4W) of 608 ± 89 mm^3 and a Tumor volume ([3]; day 37 after inoculation, 30 mg/kg i.v. BIW×4W) of 899 ± 97 mm^3. The Tumor volume ([3]; day 37 after inoculation, 45 mg/kg i.v. QW×4W) was 699 ± 102 mm^3, the Tumor volume ([3]; day 41 after inoculation, 30 mg/kg i.v. BIW×4W) was 995 ± 126 mm^3 and the Tumor volume ([3]; day 41 after inoculation, 45 mg/kg i.v. QW×4W) was 733 ± 93 mm^3. The “TGD (to 1,000 mm^3)” value ([4]; 30 mg/kg i.v. BIW×4W) was over 7, the “T/C (%) RTV” value ([4]; 30 mg/kg i.v. BIW×4W) was 10% and the “T/C (%) TW” value ([4]; 30 mg/kg i.v. BIW×4W) was 8%. The “TGD (to 1,000 mm^3)” value ([4]; 45 mg/kg i.v. QW×4W) was over 7, the “T/C (%) RTV” value ([4]; 45 mg/kg i.v. QW×4W) was 11% and the “T/C (%) TW” value ([4]; 45 mg/kg i.v. QW×4W) was 10%. The RTV ([4]; 30 mg/kg i.v. BIW×4W) was 0.94 ± 0.11, the Tumor weight ([4]; 30 mg/kg i.v. BIW×4W) was 102 ± 15 mg and the RTV ([4]; 45 mg/kg i.v. QW×4W) was 1.05 ± 0.11. For the same substance, the Tumor weight ([4]; 45 mg/kg i.v. QW×4W) was 129 ± 20 mg, the Tumor volume ([4]; day 24 after inoculation, 30 mg/kg i.v. BIW×4W) was 140 ± 11 mm^3 and the Tumor volume ([4]; day 24 after inoculation, 45 mg/kg i.v. QW×4W) was 139 ± 11 mm^3. For the same substance, the Tumor volume ([4]; day 28 after inoculation, 30 mg/kg i.v. BIW×4W) was 131 ± 8 mm^3, the Tumor volume ([4]; day 28 after inoculation, 45 mg/kg i.v. QW×4W) was 115 ± 8 mm^3 and the Tumor volume ([4]; day 31 after inoculation, 30 mg/kg i.v. BIW×4W) was 134 ± 11 mm^3. It also gave a Tumor volume ([4]; day 31 after inoculation, 45 mg/kg i.v. QW×4W) of 126 ± 10 mm^3, a Tumor volume ([4]; day 35 after inoculation, 30 mg/kg i.v. BIW×4W) of 124 ± 15 mm^3 and a Tumor volume ([4]; day 35 after inoculation, 45 mg/kg i.v. QW×4W) of 122 ± 13 mm^3. For the same substance, the Tumor volume ([4]; day 38 after inoculation, 30 mg/kg i.v. BIW×4W) was 131 ± 13 mm^3, the Tumor volume ([4]; day 38 after inoculation, 45 mg/kg i.v. QW×4W) was 120 ± 13 mm^3 and the Tumor volume ([4]; day 42 after inoculation, 30 mg/kg i.v. BIW×4W) was 122 ± 8 mm^3. The Tumor volume ([4]; day 42 after inoculation, 45 mg/kg i.v. QW×4W) was 124 ± 9 mm^3, the Tumor volume ([4]; day 45 after inoculation, 30 mg/kg i.v. BIW×4W) was 131 ± 9 mm^3 and the Tumor volume ([4]; day 45 after inoculation, 45 mg/kg i.v. QW×4W) was 140 ± 11 mm^3. For the same substance, the Tumor volume ([4]; day 49 after inoculation, 30 mg/kg i.v. BIW×4W) was 128 ± 9 mm^3, the Tumor volume ([4]; day 49 after inoculation, 45 mg/kg i.v. QW×4W) was 138 ± 14 mm^3 and the Tumor volume ([4]; day 52 after inoculation, 30 mg/kg i.v. BIW×4W, 30 mg/kg) was 127 mm^3 and 127 ± 6 mm^3. For the same substance, the Tumor volume ([4]; day 52 after inoculation, 45 mg/kg i.v. QW×4W, 45 mg/kg) was 145 mm^3 and 145 ± 14 mm^3.
